Among the data in patent US20070049593A1 (priority 2004, published 2007) are IC50 values, retold here.

The structures appear in SMILES notation. Structures can show the parent of a compound that is named as a salt.

The term IC50 denotes the midpoint of a concentration-inhibition curve. Lower therefore signals higher potency.

T1 sequence (P26663 2420-2963): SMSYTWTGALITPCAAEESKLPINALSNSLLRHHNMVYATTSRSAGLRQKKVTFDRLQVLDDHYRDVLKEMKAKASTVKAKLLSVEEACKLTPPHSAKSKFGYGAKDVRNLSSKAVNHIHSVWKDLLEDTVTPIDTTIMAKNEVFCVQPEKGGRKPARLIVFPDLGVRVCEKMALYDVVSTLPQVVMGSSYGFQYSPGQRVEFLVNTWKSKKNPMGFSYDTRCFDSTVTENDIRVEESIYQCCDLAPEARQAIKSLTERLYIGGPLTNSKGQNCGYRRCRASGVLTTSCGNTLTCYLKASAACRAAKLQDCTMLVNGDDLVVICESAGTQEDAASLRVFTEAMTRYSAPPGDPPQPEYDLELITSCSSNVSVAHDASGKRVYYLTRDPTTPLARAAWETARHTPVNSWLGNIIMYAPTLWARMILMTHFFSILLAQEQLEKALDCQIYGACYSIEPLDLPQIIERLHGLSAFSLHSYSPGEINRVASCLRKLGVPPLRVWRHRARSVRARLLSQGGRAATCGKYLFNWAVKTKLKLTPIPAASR

The assay has as its target T1, HCV polymerase (Hepatitis C virus genotype 1b, UniProt P26663).
T1 construct: a region encoding NS5B (J Virol 1991 March, 65(3), 1105-13, 544 amino acids after deletion of 47 amino acids on the C-terminal); 6xHis (C); made in house; host or cells: Escherichia coli
Description: biochemical. Also noted: species or system HCV BK strain. In a few lines: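 Recombinant HCV BK-strain NS5B (C-terminal 47 aa deleted, His6-tagged, E. coli), 0.5 μg/ml, run with 5 μg/ml in vitro-transcribed RNA template (polyU/3′X), ATP/GTP/CTP 50 μM, UTP 2 μM plus [3H]UTP, pH 7.5, 25° C, 90 min. TCA-precipitated RNA counted by scintillation; IC50 from activity with vs without compound.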
Consider `COc1ccc2c(c1)OCCn1c-2c(C2CCCCC2)c2ccc(C(=O)NC3(c4nc5ccc(C(C)(C)C(=O)O)cc5[nH]4)CCC3)cc21` [Example 2-445, 2-(2-{1-[(12-cyclohexyl-3-methoxy-6,7-dihydro-5-oxa-7a-azadibenzo[a,e]azulene-9-carbonyl)amino]cyclobutyl}-3H-benzimidazol-5-yl)-2-methylpropionic acid], for which the IC50 is less than 100 nM. The value for `CCOc1ccc2c(c1)OCCn1c-2c(C2CCCCC2)c2ccc(C(=O)NC3(C(=O)Nc4ccc(/C=C/C(=O)O)cc4)CCC3)cc21` [Example 2-446, (E)-3-[4-({1-[(12-cyclohexyl-3-ethoxy-6,7-dihydro-5-oxa-7a-azadibenzo[a,e]azulene-9-carbonyl)amino]cyclobutanecarbonyl}amino)phenyl]acrylic acid] was less than 100 nM; that for `COc1ccc2c(c1)OCCn1c-2c(C2CCCCC2)c2ccc(C(=O)NC3(c4nc5cc(C(C)(C)O)c(OC)cc5[nH]4)CCC3)cc21` [Example 2-447, N-{1-[5-(1-hydroxy-1-methylethyl)-6-methoxy-1H-benzimidazol-2-yl]cyclobutyl}-12-cyclohexyl-3-methoxy-6,7-dihydro-5-oxa-7a-azadibenzo[a,e]azulene-9-carboxamide] was less than 100 nM; that for `COc1ccc2c(c1)OCCn1c-2c(C2CCCCC2)c2ccc(C(=O)NC3(C(=O)Nc4ccc5nc[nH]c5c4)CCC3)cc21` [Example 2-448, N-[1-(3H-benzimidazol-5-ylcarbamoyl)cyclobutyl]-12-cyclohexyl-3-methoxy-6,7-dihydro-5-oxa-7a-azadibenzo[a,e]azulene-9-carboxamide] was less than 100 nM. The same measure for `COc1ccc2c(c1)OCCn1c-2c(C2CCCCC2)c2ccc(C(=O)NC3(c4nc5ccc(C(=O)O)cc5[nH]4)CCN(C)CC3)cc21` [Example 2-449, 2-{4-[(12-cyclohexyl-3-methoxy-6,7-dihydro-5-oxa-7a-azadibenzo[a,e]azulene-9-carbonyl)amino]-1-methylpiperidin-4-yl}-3H-benzimidazole-5-carboxylic acid]: less than 100 nM; for `COc1ccc2c(c1)OCCn1c-2c(C2CCCCC2)c2ccc(C(=O)N[C@@H](Cc3ccc(O)cc3)C3=NCCN3)cc21` [Example 2-450, N—[(S)-1-(4,5-dihydro-1H-imidazol-2-yl)-2-(4-hydroxyphenyl)ethyl]-12-cyclohexyl-3-methoxy-6,7-dihydro-5-oxa-7a-azadibenzo[a,e]azulene-9-carboxamide]: less than 100 nM; for `COc1ccc2c(c1)OCCn1c-2c(C2CCCCC2)c2ccc(C(=O)NC3(C(=O)Nc4ccc(/C=C/C(=O)O)cc4OC)CCC3)cc21` [Example 2-451, (E)-3-[4-({1-[(12-cyclohexyl-3-methoxy-6,7-dihydro-5-oxa-7a-azadibenzo[a,e]azulene-9-carbonyl)amino]cyclobutanecarbonyl}amino)-3-methoxyphenyl]acrylic acid]: less than 100 nM. The same measure for `COc1ccc2c(c1)OCCn1c-2c(C2CCCCC2)c2ccc(C(=O)N[C@@H](Cc3ccc(O)cc3)C(=O)OC(C)(C)C)cc21` [Example 2-452, tert-butyl (S)-2-[(12-cyclohexyl-3-methoxy-6,7-dihydro-5-oxa-7a-azadibenzo[a,e]azulene-9-carbonyl)amino]-3-(4-hydroxyphenyl)propionate]: less than 100 nM. Compound `COc1ccc2c(c1)OCCn1c-2c(C2CCCCC2)c2ccc(C(=O)N[C@@H](Cc3ccc(O)cc3)c3nc(=O)on3C)cc21` [Example 2-453, N—[(S)-2-(4-hydroxyphenyl)-1-(2-methyl-5-oxo-2,5-dihydro-1,2,4-oxadiazol-3-yl)ethyl]-12-cyclohexyl-3-methoxy-6,7-dihydro-5-oxa-7a-azadibenzo[a,e]azulene-9-carboxamide] gave a 50% inhibitory concentration (IC50) of less than 100 nM.

For `COc1ccc2c(c1)OCCn1c-2c(C2CCCCC2)c2ccc(C(=O)N[C@@H](Cc3ccc(O)cc3)c3nnnn3C)cc21` [Example 2-454, N—[(S)-2-(4-hydroxyphenyl)-1-(1-methyl-1H-tetrazol-5-yl)ethyl]-12-cyclohexyl-3-methoxy-6,7-dihydro-5-oxa-7a-azadibenzo[a,e]azulene-9-carboxamide], the half-inhibitory concentration (IC50) is less than 100 nM. `COc1ccc2c(c1)OCCn1c-2c(C2CCCCC2)c2ccc(C(=O)NC3(c4nc5cc(OCC(=O)O)ccc5[nH]4)CCC3)cc21` [Example 2-455, (2-{1-[(12-cyclohexyl-3-methoxy-6,7-dihydro-5-oxa-7a-azadibenzo[a,e]azulene-9-carbonyl)amino]cyclobutyl}-1H-benzimidazol-5-yloxy)acetic acid]: the concentration for half-maximal inhibition (IC50) is less than 100 nM. The value for `CCN1CCN(CCOc2cccc3c2OCCn2c-3c(C3CCCCC3)c3ccc(C(=O)O)cc32)CC1` [Example 2-456, 12-cyclohexyl-4-[2-(4-ethylpiperazin-1-yl)ethoxy]-6,7-dihydro-5-oxa-7a-azadibenzo[a,e]azulene-9-carboxylic acid dihydrochloride] was less than 100 nM.

Turning to `CC(C)(C)OC(=O)N1CCC(CCOc2cccc3c2OCCn2c-3c(C3CCCCC3)c3ccc(C(=O)O)cc32)CC1` [Example 2-457, 4-[2-(1-tert-butoxycarbonylpiperidin-4-yl)ethoxy]-12-cyclohexyl-6,7-dihydro-5-oxa-7a-azadibenzo[a,e]azulene-9-carboxylic acid], the IC50 is less than 100 nM.

For `O=C(O)c1ccc2c(C3CCCCC3)c3n(c2c1)CCOc1c(OCCC2CCNCC2)cccc1-3` [Example 2-458, 12-cyclohexyl-4-[2-(piperidin-4-yl)ethoxy]-6,7-dihydro-5-oxa-7a-azadibenzo[a,e]azulene-9-carboxylic acid monohydrochloride], the concentration for half-maximal inhibition (IC50) was less than 100 nM. For the compound `CN1CCC(CCOc2cccc3c2OCCn2c-3c(C3CCCCC3)c3ccc(C(=O)O)cc32)CC1` [Example 2-459, 12-cyclohexyl-4-[2-(1-methylpiperidin-4-yl)ethoxy]-6,7-dihydro-5-oxa-7a-azadibenzo[a,e]azulene-9-carboxylic acid monohydrochloride], the IC50 was less than 100 nM.

In turn, `O=C(O)c1ccc2c(C3CCCCC3)c3n(c2c1)CCOc1c(OCCCN2CCCCC2)cccc1-3` [Example 2-460, 12-cyclohexyl-4-[3-(piperidin-1-yl)propoxy]-6,7-dihydro-5-oxa-7a-azadibenzo[a,e]azulene-9-carboxylic acid monohydrochloride] registered an IC50 of less than 100 nM. On to `O=C(O)c1ccc2c(C3CCCCC3)c3n(c2c1)CCOc1c(OCCN2CCOCC2)cccc1-3` [Example 2-462, 12-cyclohexyl-4-[2-(morpholin-4-yl)ethoxy]-6,7-dihydro-5-oxa-7a-azadibenzo[a,e]azulene-9-carboxylic acid monohydrochloride], for which the IC50 is less than 100 nM. The value for `CN(C)CCOc1cccc2c1OCCn1c-2c(C2CCCCC2)c2ccc(C(=O)O)cc21` [Example 2-463, 12-cyclohexyl-4-(2-dimethylaminoethoxy)-6,7-dihydro-5-oxa-7a-azadibenzo[a,e]azulene-9-carboxylic acid monohydrochloride] was less than 100 nM. The same measure for `O=C(O)c1ccc2c(C3CCCCC3)c3n(c2c1)CCOc1c(CCN2CCCCC2)cccc1-3` [Example 2-464, 12-cyclohexyl-4-[2-(piperidin-1-yl)ethyl]-6,7-dihydro-5-oxa-7a-azadibenzo[a,e]azulene-9-carboxylic acid monohydrochloride]: less than 100 nM; for `CC(C)(C)OC(=O)N1CCC(OCCOc2cccc3c2OCCn2c-3c(C3CCCCC3)c3ccc(C(=O)O)cc32)CC1` [Example 2-465, 4-[2-(1-tert-butoxycarbonylpiperidin-4-yloxy)ethoxy]-12-cyclohexyl-6,7-dihydro-5-oxa-7a-azadibenzo[a,e]azulene-9-carboxylic acid]: less than 100 nM; for `O=C(O)c1ccc2c(C3CCCCC3)c3n(c2c1)CCOc1c(OCCOC2CCNCC2)cccc1-3` [Example 2-466, 12-cyclohexyl-4-[2-(piperidin-4-yloxy)ethoxy]-6,7-dihydro-5-oxa-7a-azadibenzo[a,e]azulene-9-carboxylic acid monohydrochloride]: less than 100 nM. The same measure for `CN1CCC(OCCOc2cccc3c2OCCn2c-3c(C3CCCCC3)c3ccc(C(=O)O)cc32)CC1` [Example 2-467, 12-cyclohexyl-4-[2-(1-methylpiperidin-4-yloxy)ethoxy]-6,7-dihydro-5-oxa-7a-azadibenzo[a,e]azulene-9-carboxylic acid monohydrochloride]: less than 100 nM; for `O=C(O)c1ccc2c(C3CCCCC3)c3n(c2c1)CCOc1c(OCCC2CCN(C4CCCC4)CC2)cccc1-3` [Example 2-468, 12-cyclohexyl-4-[2-(1-cyclopentylpiperidin-4-yl)ethoxy]-6,7-dihydro-5-oxa-7a-azadibenzo[a,e]azulene-9-carboxylic acid monohydrochloride]: less than 100 nM. `CN1CCCC(Oc2cccc3c2OCCn2c-3c(C3CCCCC3)c3ccc(C(=O)O)cc32)C1` (centres unmarked) [Example 2-469, 12-cyclohexyl-4-(1-methylpiperidin-3-yloxy)-6,7-dihydro-5-oxa-7a-azadibenzo[a,e]azulene-9-carboxylic acid monohydrochloride] showed a 50% inhibitory concentration (IC50) of less than 100 nM. In turn, `COCCN1CCCC(Oc2cccc3c2OCCn2c-3c(C3CCCCC3)c3ccc(C(=O)O)cc32)C1` (centres unmarked) [Example 2-470, 12-cyclohexyl-4-[1-(2-methoxyethyl)piperidin-3-yloxy]-6,7-dihydro-5-oxa-7a-azadibenzo[a,e]azulene-9-carboxylic acid monohydrochloride] had a half-maximal inhibitory concentration (IC50) of less than 100 nM. The same measure for `O=C(O)c1ccc2c(C3CCCCC3)c3n(c2c1)CCOc1c(OCc2cc(N4CCCC4=O)ccc2N2CCOCC2)cccc1-3` [Example 2-471, 12-cyclohexyl-4-[2-(morpholin-4-yl)-5-(2-oxopyrrolidin-1-yl)benzyloxy]-6,7-dihydro-5-oxa-7a-azadibenzo[a,e]azulene-9-carboxylic acid monohydrochloride]: less than 100 nM.
